Test results taken from ChEMBL document CHEMBL4680185, “Discovery of novel cyclin-dependent kinase (CDK) and histone deacetylase (HDAC) dual inhibitors with potent in vitro and in vivo anticancer activity” (Eur J Med Chem, 2020).
Active and inactive are the calls of the source. No cut-off for these calls is given here.

Experiments:
NCI-H460 [1] = assay: cells; format: functional; details: Homo sapiens, time 72 hrs, read-out: GI
SMMC-7721 = assay: cells; format: functional, cell-based; details: Homo sapiens, SMMC-7721, 72 h
Description: Antiproliferative activity against human SMMC7721 cells assessed as inhibition of cell growth incubated for 72 hrs by CCK-8 assay

A-375 [2] = assay: cells; format: functional, cell-based; details: Homo sapiens, A-375, 72 h
Description: Antiproliferative activity against human A375 cells assessed as inhibition of cell growth incubated for 72 hrs by CCK-8 assay

NCI-H460 [3] = assay: cells; format: functional, cell-based; details: Homo sapiens, NCI-H460, 72 h
Description: Antiproliferative activity against human H460 cells assessed as inhibition of cell growth incubated for 72 hrs by CCK-8 assay

HCT-116 [4] = assay: cells; format: functional; details: Homo sapiens, time 72 hrs, read-out: GI
HCT-116 [5] = assay: Induction of apoptosis in human HCT116 cells assessed as number of apoptotic cells at 2 uM incubated for 48 hrs by annexin V-FITC/PI based flow cytometric analysis relative to control; format: functional
CDK6/cyclin D3 = CDK6/cyclin D3 (Homo sapiens, UniProt Q00534); assay: Inhibition of recombinant human full length CDK6/cyclin D3 incubated for 10 mins by ADP-Glo reagent assay; format: protein-complex assay
CDK6/cyclin D3, sequence (P30281 whole entry): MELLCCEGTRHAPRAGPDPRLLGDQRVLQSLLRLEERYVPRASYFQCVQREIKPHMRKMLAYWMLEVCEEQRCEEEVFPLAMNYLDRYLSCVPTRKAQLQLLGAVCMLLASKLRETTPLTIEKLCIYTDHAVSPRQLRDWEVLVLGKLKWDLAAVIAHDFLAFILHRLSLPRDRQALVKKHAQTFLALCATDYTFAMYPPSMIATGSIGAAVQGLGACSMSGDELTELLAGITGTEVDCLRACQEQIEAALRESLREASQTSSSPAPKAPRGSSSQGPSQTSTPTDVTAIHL
CDK6/cyclin D3, sequence (Q00534 whole entry): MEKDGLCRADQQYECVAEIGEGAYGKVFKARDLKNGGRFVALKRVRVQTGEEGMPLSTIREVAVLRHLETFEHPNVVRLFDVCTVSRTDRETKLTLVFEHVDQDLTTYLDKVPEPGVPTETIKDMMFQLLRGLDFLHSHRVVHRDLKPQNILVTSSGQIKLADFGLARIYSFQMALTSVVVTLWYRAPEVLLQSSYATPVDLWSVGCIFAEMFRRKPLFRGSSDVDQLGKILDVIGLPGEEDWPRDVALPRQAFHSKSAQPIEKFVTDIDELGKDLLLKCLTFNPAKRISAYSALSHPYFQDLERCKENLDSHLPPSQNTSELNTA

A-375 [6] = assay: Induction of apoptosis in human A375 cells assessed as number of apoptotic cells at 2 uM incubated for 48 hrs by annexin V-FITC/PI based flow cytometric analysis relative to control; format: functional
[7] = target: Cyclin-dependent kinase 7/ cyclin H (Homo sapiens, UniProt P50613); assay: Inhibition of recombinant human full length CDK7/cyclin H1 expressed in Sf9 cells incubated for 10 mins by ADP-Glo reagent assay
Cyclin-dependent kinase 7/ cyclin H, sequence (P51946 whole entry): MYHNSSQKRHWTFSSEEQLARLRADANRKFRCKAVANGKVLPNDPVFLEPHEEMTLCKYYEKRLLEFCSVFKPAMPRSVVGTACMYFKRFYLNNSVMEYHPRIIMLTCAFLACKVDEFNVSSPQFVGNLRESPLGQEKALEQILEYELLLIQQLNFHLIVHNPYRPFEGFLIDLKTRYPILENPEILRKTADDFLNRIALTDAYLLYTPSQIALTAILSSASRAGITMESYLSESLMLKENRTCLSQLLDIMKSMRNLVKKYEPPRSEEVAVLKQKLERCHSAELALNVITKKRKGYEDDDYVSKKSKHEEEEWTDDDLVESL
Cyclin-dependent kinase 7/ cyclin H, sequence (P50613 whole entry): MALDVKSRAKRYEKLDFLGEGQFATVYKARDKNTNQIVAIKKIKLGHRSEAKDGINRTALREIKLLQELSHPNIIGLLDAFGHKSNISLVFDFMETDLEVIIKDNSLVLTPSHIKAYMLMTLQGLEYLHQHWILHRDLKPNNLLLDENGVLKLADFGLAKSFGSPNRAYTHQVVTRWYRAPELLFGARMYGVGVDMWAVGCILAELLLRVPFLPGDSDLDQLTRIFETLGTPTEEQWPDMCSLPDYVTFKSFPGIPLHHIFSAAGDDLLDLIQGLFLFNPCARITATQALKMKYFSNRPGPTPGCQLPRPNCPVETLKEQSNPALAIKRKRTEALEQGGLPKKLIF

NCI-H460 [8] = assay: cells; format: functional; details: Homo sapiens, time 72 hrs, read-out: GI; remark: listed apart in the source
HCT-116 [9] = assay: cells; format: functional, cell-based; details: Homo sapiens, HCT-116, 72 h
Description: Antiproliferative activity against human HCT116 cells assessed as inhibition of cell growth incubated for 72 hrs by CCK-8 assay

A-375 [10] = assay: Antimigratory activity against human A375 cells assessed as inhibition of cell migration at 0.25 uM measured after 48 hrs by cell scratch assay; format: functional, cell-based
HeLa = assay: cells; format: functional, cell-based; details: Homo sapiens, 72 h
Description: Antiproliferative activity against human Hela cells assessed as inhibition of cell growth incubated for 72 hrs by CCK-8 assay

HCT-116 [11] = assay: cells; format: functional; details: Homo sapiens, time 72 hrs, read-out: GI; remark: listed apart in the source
[12] = Cytotoxicity against mouse NIH/3T3 cells incubated for 72 hrs by CCK-8 assay; format: cell-based; details: NIH3T3, 72 h
NCI-H460 [13] = assay: Antimigratory activity against human H460 cells assessed as inhibition of cell migration at 0.5 uM measured after 48 hrs by cell scratch assay; format: functional, cell-based
[14] = target: Cyclin-dependent kinase 4/cyclin D1 (Homo sapiens, UniProt P11802); assay: Inhibition of recombinant human full length CDK4/cyclin D1 expressed in Sf9 cells incubated for 10 mins by ADP-Glo reagent assay
Cyclin-dependent kinase 4/cyclin D1, sequence (P11802 whole entry): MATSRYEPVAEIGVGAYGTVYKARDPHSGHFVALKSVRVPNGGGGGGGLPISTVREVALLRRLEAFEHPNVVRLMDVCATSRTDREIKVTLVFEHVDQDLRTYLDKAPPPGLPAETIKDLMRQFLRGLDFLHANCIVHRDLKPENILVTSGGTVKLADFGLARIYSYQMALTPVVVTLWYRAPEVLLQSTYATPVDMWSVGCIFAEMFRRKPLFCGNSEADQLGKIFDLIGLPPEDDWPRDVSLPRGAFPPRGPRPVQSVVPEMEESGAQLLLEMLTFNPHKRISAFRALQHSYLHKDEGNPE
Cyclin-dependent kinase 4/cyclin D1, sequence (P24385 whole entry, further chain): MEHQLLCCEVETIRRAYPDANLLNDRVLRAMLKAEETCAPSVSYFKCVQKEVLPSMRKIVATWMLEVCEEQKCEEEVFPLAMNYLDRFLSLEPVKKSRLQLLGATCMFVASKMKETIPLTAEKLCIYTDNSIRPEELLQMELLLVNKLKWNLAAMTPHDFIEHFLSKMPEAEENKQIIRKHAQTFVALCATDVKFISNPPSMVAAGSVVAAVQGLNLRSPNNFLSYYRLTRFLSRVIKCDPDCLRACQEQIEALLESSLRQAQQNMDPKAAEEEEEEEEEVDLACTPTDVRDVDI

IC50 (SMMC-7721): 23.2 µM
IC50 (A-375 [2]): 13.4 µM
IC50 (NCI-H460 [3]): 9.46 µM
IC50 (CDK6/cyclin D3): > 1 µM
IC50 [7]: > 1 µM
IC50 (HCT-116 [9]): 1.96 µM
IC50 (HeLa): 8.23 µM
IC50 [14]: > 1 µM
Structure (SMILES): O=C(Nc1ccc(F)cc1)c1n[nH]cc1NC(=O)c1c(F)cccc1F
inhibition of growth at 2 µM (NCI-H460 [1]): 21.3%
inhibition of growth at 8 µM (HCT-116 [4]): 74%
Activity (HCT-116 [5]): 48%
Activity (A-375 [6]): 66.71%
inhibition of growth at 8 µM (NCI-H460 [8]): 59.1%
inhibition (A-375 [10]): Active
inhibition of growth at 2 µM (HCT-116 [11]): 57.6%
IC50 [12]: 7.85 µM
inhibition (NCI-H460 [13]): Active
